From patent US20240366813A1, “PEPTIDE-UREA DERIVATIVE, PHARMACEUTICAL COMPOSITION CONTAINING SAME AND APPLICATION THEREOF” (Bivision Pharmaceuticals, Inc., priority 0001, published 2024)

Tested on: 22rv1 tumor
Assay: Tissue distribution in PSMA-positive 22rv1 tumor-bearing mice
Format: in vivo
Settings: tail vein, FIG. 8
Method: Tissue distribution in PSMA-positive tumor-bearing mice: About 6-9 weeks old (Nod scid) mice (Jiangsu Huajing Molecular Imaging and Drug Research Institute Co., Ltd.) were inoculated subcutaneously with 5×10^6 cells of 22rv1 (in 50% Matrigel, Corning) on the right shoulder of animals. When the tumor grew to a size of about 150-350 mm^3, ^177Lu-E3 radiolabeled compound was injected into the tail vein of the mouse (about 7.4 MBq/mouse, specific activity: 22423.82 KBq/μg). The animals were euthanized by carbon dioxide inhalation at 0.25, 0.5, 1, 6, 24, 72, 144, and 168 hours respectively after administration. Blood and viscera (blood, liver, spleen, lung, heart, muscle, pancreas, testis, tumor) were collected from animals after euthanasia.
Blood was collected through the abdominal aorta, and immediately after collection, 100 μL was quantified into a designated centrifuge tube (weighed). After the viscera were collected, they were washed twice with deionized water and wiped dry. The viscera were put into a pre-weighed test tube, and weighed again. The weight of the sample was calculated. The sample was measured on the day of collection. All blood samples and tissue samples were measured for radioactive counts using a gamma counter, and the results are shown in FIG. 8.

O=C([O-])CN1CCN(CC(=O)[O-])CCN(CC(=O)N2CCc3cc(C(=O)NC(Cc4ccc5ccccc5c4)C(=O)NCCCCC(NC(=O)NC(CCC(=O)O)C(=O)O)C(=O)O)ccc3C2)CCN(CC(=O)[O-])CC1.[177Lu+3] (stereo not drawn) [^177Lu-E3]
drug concentration in the tumor after 7 days: high drug concentration
time of highest uptake in the tumor after administration: 2 h
uptake in non-target organs: always low
